No end group written: not given here.
T1: NPY5ΔY1CT chimeric receptor (Homo sapiens, UniProt P25929+Q15761)
T1 construct: made in house; host or cells: Sf9 insect cells infected with recombinant baculovirus (pBacPAK9 vector); purified membranes
T1 sequence (Q15761+P25929 with tags, fused parts or gaps): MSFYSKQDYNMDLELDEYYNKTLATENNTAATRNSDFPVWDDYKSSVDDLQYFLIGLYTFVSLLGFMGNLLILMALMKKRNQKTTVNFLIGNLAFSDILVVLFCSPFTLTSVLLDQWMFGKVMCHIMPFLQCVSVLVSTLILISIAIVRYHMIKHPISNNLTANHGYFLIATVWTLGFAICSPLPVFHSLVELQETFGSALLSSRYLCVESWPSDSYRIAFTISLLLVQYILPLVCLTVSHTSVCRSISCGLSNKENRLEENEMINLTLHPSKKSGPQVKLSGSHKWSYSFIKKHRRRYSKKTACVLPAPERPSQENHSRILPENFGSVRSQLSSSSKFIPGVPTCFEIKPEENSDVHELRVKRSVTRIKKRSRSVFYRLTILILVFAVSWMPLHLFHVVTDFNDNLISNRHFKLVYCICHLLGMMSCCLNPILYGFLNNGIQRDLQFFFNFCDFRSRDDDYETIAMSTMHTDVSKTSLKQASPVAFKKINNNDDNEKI

T2: NPY5 receptor (Homo sapiens, UniProt Q15761)
T2 construct: made in house; host or cells: Sf9 insect cells infected with recombinant baculovirus; purified membranes
T2 sequence (Q15761 with tags, fused parts or gaps): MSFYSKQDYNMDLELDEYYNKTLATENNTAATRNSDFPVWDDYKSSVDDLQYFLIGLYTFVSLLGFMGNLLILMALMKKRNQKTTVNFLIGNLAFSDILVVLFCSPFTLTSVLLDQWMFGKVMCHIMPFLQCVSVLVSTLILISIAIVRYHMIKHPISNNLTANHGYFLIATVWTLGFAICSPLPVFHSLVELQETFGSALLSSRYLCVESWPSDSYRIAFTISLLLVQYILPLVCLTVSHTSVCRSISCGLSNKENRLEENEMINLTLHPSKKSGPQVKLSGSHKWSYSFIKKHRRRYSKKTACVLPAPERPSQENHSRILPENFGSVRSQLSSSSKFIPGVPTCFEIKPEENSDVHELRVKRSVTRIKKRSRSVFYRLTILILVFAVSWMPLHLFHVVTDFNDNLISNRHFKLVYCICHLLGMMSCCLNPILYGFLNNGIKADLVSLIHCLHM

T3: NPY5ΔY1IC3 chimeric receptor (Homo sapiens, UniProt Q15761, DEL238-360/INS235IRLKRRNNMMDKMRDNKY/K361S)
T3 construct: made in house; host or cells: Sf9 insect cells infected with recombinant baculovirus (pBacPAK9 vector); purified membranes
T3 sequence (Q15761 with tags, fused parts or gaps INS235IRLKRRNNMMDKMRDNKY/DEL238-360/K361S): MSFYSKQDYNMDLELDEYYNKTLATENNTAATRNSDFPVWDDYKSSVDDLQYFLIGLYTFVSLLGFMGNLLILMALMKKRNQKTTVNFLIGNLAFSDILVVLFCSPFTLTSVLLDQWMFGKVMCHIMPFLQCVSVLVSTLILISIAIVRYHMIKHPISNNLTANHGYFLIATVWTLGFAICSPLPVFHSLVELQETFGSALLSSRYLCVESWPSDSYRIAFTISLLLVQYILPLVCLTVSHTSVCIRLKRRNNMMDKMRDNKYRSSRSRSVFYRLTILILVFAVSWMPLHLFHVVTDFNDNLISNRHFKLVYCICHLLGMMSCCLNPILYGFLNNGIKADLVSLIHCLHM

T4: Human Y5 receptor (NPY5) (human, UniProt Q15761 1-445)
T4 construct: Full-length receptor expressed by baculovirus in Sf9 insect cells; assayed in purified Sf9 membranes, not on whole cells; also called native NPY5 receptor; hY5
T4 sequence: T2 sequence (Q15761 with tags, fused parts or gaps)

T5: Human NPY5ΔY1CT chimera (human)
T5 construct: Human NPY5 with its C-terminal intracellular domain replaced by that of human Y1; Expressed in Sf9 cells; assayed in purified membranes
T5 chain: T1 sequence (Q15761+P25929 with tags, fused parts or gaps)

B1: human NPY 13-36 (peptide, UniProt P01303 41-64, looked up)
peptide: PAEDMARYYSALRHYINLITRQRY
modifications: ends and bridges not checked
notes: range 13-36; also called HNPY 13-36
B2: human pancreatic polypeptide (peptide, UniProt P01298 30-65, looked up)
peptide: APLEPVYPGDNATPEQMAQYAADLRRYINMLTRPRY
notes: also called hPP; HPP

What was measured:
[1] = target: T1, NPY5ΔY1CT chimeric receptor; assay: [125I]PYY competition binding, Sf9 membranes expressing NPY5ΔY1CT; details: displacement of 0.050 nM [125I]PYY (porcine)
Description: (§1) 72 hours post-infection, a sample of cell suspension was analyzed for viability by trypan blue dye exclusion, and the remaining Sf9 cells were harvested via centrifugation (3000 rpm/10 minutes/4° C.).
(§2) Sf9 cell pellets prepared in Example 3 were resuspended in homogenization buffer (10 mM HEPES, 250 mM sucrose, 0.5 μg/ml leupeptin, 2 μg/ml Aprotinin, 200 μM PMSF, and 2.5 mM EDTA, pH 7.4) and homogenized using a POLYTRON homogenizer (setting 5 for 30 seconds). The homogenate was centrifuged (536×g/10 minutes/4° C.) to pellet the nuclei. The supernatant containing isolated membranes was decanted to a clean centrifuge tube, centrifuged (48,000×g/30 minutes, 4° C.) and resuspended in 30 ml homogenization buffer. This centrifugation and resuspension step was repeated twice. The final pellet was resuspended in ice cold Dulbecco's PBS containing 5 mM EDTA and stored at −80° C. in aliquots until needed. The protein concentration of the resulting membrane preparation was measured using the Bradford protein assay (Bio-Rad Laboratories, Hercules, Calif.).
(§3) Purified P2 membranes, prepared by the method given above in Example 4, were washed with PBS and resuspended by Dounce homogenization (tight pestle) in binding buffer (50 mM Tris-HCl, 5 mM KCl, 120 mM NaCl, 2 mM CaCl2, 1 mM MgCl2, 0.1% BSA, pH 7.4).
(§4) Nonspecific binding was determined in the presence of 1 μM NPY (human, American Peptide Co., Sunnyvale, Calif.) and accounted for less that 10% of total binding. Following a 2-hour incubation at room temperature, the reaction was terminated by rapid vacuum filtration. Samples were filtered over presoaked (in 1.0% polyethyeneimine for 2 hours prior to use) GF/C WHATMAN filters and rinsed 2 times with 5 mLs cold binding buffer without BSA. Remaining bound radioactivity was quantified by gamma counting. Ki and Hill coefficient (“nH”) were determined by fitting the Hill equation to the measured values with the aid of SIGMAPLOT software (SPSS Inc., Chicago).

NPY5 receptor = target: T2, NPY5 receptor; assay: [125I]PYY competition binding, Sf9 membranes expressing NPY5; details: displacement of 0.050 nM [125I]PYY (porcine)
Description: as §1, §2, §3, §4

[2] = target: T3, NPY5ΔY1IC3 chimeric receptor; assay: [125I]PYY competition binding, Sf9 membranes expressing NPY5ΔY1IC3; details: displacement of 0.050 nM [125I]PYY (porcine)
Description: as §1, §2, §3, §4

Human Y5 receptor (NPY5) = target: T4, Human Y5 receptor (NPY5); assay: displacement of 0.050 nM [125I]PYY (porcine) from Sf9 membranes, filtration
Description: (§5) Following a 2-hour incubation at room temperature, the reaction was terminated by rapid vacuum filtration. Samples were filtered over presoaked (in 1.0% polyethyeneimine for 2 hours prior to use) GF/C WHATMAN filters and rinsed 2 times with 5 mLs cold binding buffer without BSA. Remaining bound radioactivity was quantified by gamma counting. Kᵢ and Hill coefficient (“nH”) were determined by fitting the Hill equation to the measured values with the aid of SIGMAPLOT software (SPSS Inc., Chicago).

Human NPY5ΔY1CT chimera = target: T5, Human NPY5ΔY1CT chimera; assay: as above
Description: as §5

Molecule | nH (Hill coefficient) [1] | nH (Hill coefficient) (NPY5 receptor) | nH (Hill coefficient) [2] | Ki (Human Y5 receptor (NPY5)) [nM] | Ki (Human NPY5ΔY1CT chimera) [nM]
human NPY 3-36 [HNPY 3-36] | 0.6 | 0.7 | 1.2 | – | –
human NPY 13-36 [HNPY 13-36] | 0.5 | 0.7 | 1.0 | – | –
human NPY 1-36 [HNPY 1-36] | 0.7 | 0.7 | 1.0 | – | –
human D-Trp 32 NPY | 0.9 | 0.7 | 0.8 | – | –
B1 | – | – | – | 20 | –
B2 | – | – | – | – | 0.31
